From patent US8648074B2, “Substituted octahydropyrrolo[1,2-a]pyrazine sulfonamides as calcium channel blockers” (AbbVie Inc., priority 2011, dated 2014) come the findings set out here.

SMILES strings stand for the structures.

For this experiment, the system named is Chronic constriction injury (CCl), a model of neuropathic pain. Kind of experiment: In vivo assessment of analgesic effect against neuropathic pain (Bennett model, chronic constriction injury; tactile allodynia by von Frey filaments). The settings on record: Rattus norvegicus, po, 1 h; male Sprague Dawley rats, CCI; 10 mg/kg orally; mechanical allodynia 60 minutes following administration; percentage of maximum possible effect from log g PWT; read-out: % MPE. Here is the method: Animals were prepared for testing, by use of a surgical procedure that induces neuropathic pain in one paw. IACUC guidelines for rodent survival surgery were followed. All surgical procedures were conducted on a clean, uncluttered surgical station. The area was wiped with a 70% ethanol solution before and after use. All instruments were sterilized by either autoclave or chemical sterilant (such as 2% glutaraldehyde>10 hours). Surgeons wore sterile gloves (for the initial procedure), clean lab coat or scrubs, hairnet or cap, and a half-mask respirator (when not working under a hood). Surgeons thoroughly washed their hands prior to donning sterile gloves. Gloves were disinfected in-between animals by cleansing with povidone iodine, chlorhexidine or 70% alcohol for at least 30 seconds. If multiple surgeries were performed, the instruments were cleaned and sterilized between procedures with hot glass beads (>10 seconds). To prevent thermal or chemical burns, the instruments were cooled by rinsing in sterile saline before use. Male, Sprague Dawley® rats, 175-200 g were used for surgeries. To minimize post-operative dehydration/maintain blood volume during the surgery, warmed sterile saline or Lactate Ringers solution at 10-15 mL/kg was administered subcutaneously immediately before or after surgery. This facilitated better renal function and presumably anesthesia product excretion post surgery. For all surgical procedures, anesthesia was induced with 4-5% isoflurane. Anesthesia was maintained during surgery with 1-3% isoflurane. Following induction, the surgical site was carefully shaved and the exposed area was aseptically prepared with povidone-iodine scrub solution and 70% ethanol 2-3 times. Chronic constriction injury (CCl), a model of neuropathic pain, was produced by following the method of Bennett and Xie (Bennett, G, et al. Pain, 1988, 33, 87-107). After site sterilization and anesthetic procedures outline above were completed, a 1.5 cm incision was made at the mid-thigh level to expose the biceps femoris and gluteous superficialis (right side), which were then separated by blunt dissection. The common sciatic nerve was exposed, isolated, and loosely ligated by four 5-0 chromic gut ligatures with <1 mm spacing between each. The surgical site was closed in layers—muscle was closed with 6.0 absorbable sutures, and the skin closed with wound clips. Animals were allowed to recover on a warming plate and were returned to their home cages when fully ambulatory. Animals were not be used for testing until at least 10 days following surgery. To measure mechanical sensitivity, tactile allodynia was measured using calibrated von Frey filaments (Stoelting, Wood Dale, Ill.) as described by Chaplan et al. (Chaplan S., et al. J of Neuroscience Methods 1994, 53, 55-63). Filament strengths used were: 0.4, 0.6, 1.0, 2, 4, 6, 8, and 15 g. Rats were placed into inverted individual plastic containers (20×12.5×20 cm) on top of a suspended wire mesh grid, and acclimated to the test chambers for at least 20 minutes. Filaments were applied perpendicular to the mid-plantar paw surface with enough force to cause slight buckling and held in place for 6-8 seconds. Positive responses included an abrupt withdrawal of the paw from the stimulus or flinching behavior immediately following removal of the stimulus. The maximum force applied was 15 g. The 50% paw withdrawal threshold (PWT) was calculated in grams (g) using the up-down method of Dixon (Dixon W. Ann Rev Pharmacol Toxicol 1980, 20, 441-462). […] All compounds were orally administered in at a dose of 10 mg/kg in 10% dimethyl sulfoxide/polyethylene glycol at a volume of 2.0 mL/kg, and mechanical allodynia was determined 60 minutes following compound administration. […]
As to `O=S(=O)(c1ccc(C(F)(F)F)cn1)N1CCN2C[C@H](Oc3cnc(C4CC4)cn3)C[C@H]2C1` [Example 67, (7R,8aS)-7-[(5-cyclopropylpyrazin-2-yl)oxy]-2-{[5-(trifluoromethyl)pyridin-2-yl]sulfonyl}octahydropyrrolo[1,2-a]pyrazine], the inhibition in vivo at 10 mg/kg was found to be 5%.
The same measure for `O=S(=O)(c1ccc(C(F)(F)F)cc1)N1CCN2C[C@@H](Oc3cnc(C4CC4)cn3)C[C@H]2C1` [Example 50, (7S,8aS)-7-[(5-cyclopropylpyrazin-2-yl)oxy]-2-{[4-(trifluoromethyl)phenyl]-sulfonyl}octahydropyrrolo[1,2-a]pyrazine]: 25%; for `O=S(=O)(c1ccc(C(F)(F)F)cc1)N1CCN2C[C@@H](Oc3cnc(C4CC4)cn3)C[C@@H]2C1` [Example 54, (7S,8aR)-7-[(5-cyclopropylpyrazin-2-yl)oxy]-2-{[4-(trifluoromethyl)phenyl]-sulfonyl}octahydropyrrolo[1,2-a]pyrazine]: 34%.
Turning to `O=S(=O)(c1cccc(C(F)(F)F)c1)N1CCN2C[C@H](Oc3cnc(C4CC4)cn3)C[C@H]2C1` [Example 21, (7R,8aS)-7-[(5-cyclopropylpyrazin-2-yl)oxy]-2-{[3-(trifluoromethyl)phenyl]-sulfonyl}octahydropyrrolo[1,2-a]pyrazine], the inhibition in vivo at 10 mg/kg is 43%.
The same measure for `O=S(=O)(c1ccc(F)cc1F)N1CCN2C[C@H](Oc3cnc(C4CC4)cn3)C[C@H]2C1` [Example 62, (7R,8aS)-7-[(5-cyclopropylpyrazin-2-yl)oxy]-2-[(2,4-difluorophenyl)-sulfonyl]octahydropyrrolo[1,2-a]pyrazine]: 29%; for `O=S(=O)(c1cc(F)cc(C(F)(F)F)c1)N1CCN2C[C@H](Oc3cnc(C4CC4)cn3)C[C@H]2C1` [Example 51, (7R,8aS)-7-[(5-cyclopropylpyrazin-2-yl)oxy]-2-{[3-fluoro-5-(trifluoromethyl)phenyl]sulfonyl}octahydropyrrolo[1,2-a]pyrazine]: 32%.
With `O=S(=O)(c1cccc(C(F)(F)F)c1)N1CCN2C[C@@H](Oc3cnc(C4CC4)cn3)C[C@H]2C1` [Example 49, (7S,8aS)-7-[(5-cyclopropylpyrazin-2-yl)oxy]-2-{[3-(trifluoromethyl)-phenyl]sulfonyl}octahydropyrrolo[1,2-a]pyrazine], the inhibition in vivo at 10 mg/kg was found to be 19%.
The same measure for `N#Cc1cc(C(F)(F)F)cc(S(=O)(=O)N2CCN3C[C@H](Oc4cnc(C5CC5)cn4)C[C@H]3C2)c1` [Example 64, 3-{[(7R,8aS)-7-[(5-cyclopropylpyrazin-2-yl)oxy]hexahydropyrrolo[1,2-a]-pyrazin-2(1H)-yl]sulfonyl}-5-(trifluoromethyl)benzonitrile]: 37%.
With `O=S(=O)(c1ccc(C(F)(F)F)cc1)N1CCN2C[C@H](Oc3cnc(C4CC4)cn3)C[C@H]2C1` [Example 25, (7R,8aS)-7-[(5-cyclopropylpyrazin-2-yl)oxy]-2-{[4-(trifluoromethyl)-phenyl]sulfonyl}octahydropyrrolo[1,2-a]pyrazine], the inhibition in vivo at 10 mg/kg is 42%.
The result for `O=S(=O)(c1cccc(C(F)(F)F)c1)N1CCN2C[C@H](Oc3ccc(C4CC4)nn3)C[C@H]2C1` [Example 44, (7R,8aS)-7-[(6-cyclopropylpyridazin-3-yl)oxy]-2-{[3-(trifluoromethyl)-phenyl]sulfonyl}octahydropyrrolo[1,2-a]pyrazine] reads 40%; that for `O=S(=O)(c1ccc(F)c(C(F)(F)F)c1)N1CCN2C[C@H](Oc3cnc(C4CC4)cn3)C[C@H]2C1` [Example 52, (7R,8aS)-7-[(5-cyclopropylpyrazin-2-yl)oxy]-2-{[4-fluoro-3-(trifluoromethyl)phenyl]sulfonyl}octahydropyrrolo[1,2-a]pyrazine], 38%.
On to `N#Cc1ccc(O[C@@H]2C[C@H]3CN(S(=O)(=O)c4cccc(C(F)(F)F)c4)CCN3C2)cn1` [Example 86, 5-{[(7R,8aS)-2-{[3-(trifluoromethyl)phenyl]sulfonyl}octahydropyrrolo[1,2-a]pyrazin-7-yl]oxy}pyridine-2-carbonitrile], for which the inhibition in vivo at 10 mg/kg was 0%.
